# In PMC5376947, “Cytotoxicity of Zardaverine in Embryonal Rhabdomyosarcoma from a Costello Syndrome Patient” (Frontiers in Oncology, 2017):
# Where two headings read alike, the source gives them in different places.
# Legend:
# PDE4 = conditions: PDE 4, read-out: Reported PDE inhibition IC50, cited from earlier work
# [1] = tested on: CS242 ERMS (screening) cells; experiment: CS242 ERMS (screening) cell viability assay, CellTiter-Glo, 72 h; conditions: 72 h, 72 h, top 18.8, 75 or 93.8 μM, mean ± SD (n = 3)
# Method: To generate cells optimized for high-throughput screening (HTS), one vial of frozen cells from the CS242 ERMS (initial) master cell bank was thawed in a 37°C water bath for 2 min, diluted by dropwise addition of 10 volumes of PBS, pelleted at 200 × g for 5 min, resuspended in PBS, pelleted, resuspended in medium, and transferred to a T75 flask. Cells were grown to 70% confluence over 27 days, with media changes every 3 days. Cells were then detached by trypsin treatment as described above [see CS242 ERMS (Initial)] and split at 1:20 into T150 flasks, giving 20 individual cultures at passage 7. After growth for a further 27 days with media changes every 3 days, cells reached 70% confluence and were detached and frozen as described above [see CS242 ERMS (Initial)] to give a working cell bank at passage 8.
# Cell growth in 384-well plates was assessed daily for 5 days to determine the optimal starting cell number giving progressive growth suitable for a 72-h cell viability assay. One vial of CS242 ERMS cells was thawed from the screening bank and grown in a T75 flask until confluence was >70%, after which cells were detached using trypsin and counted as described above [see CS242 ERMS (Zardaverine Resistant)].
# Using an electronic 16-channel pipettor (Finnpipette Novus MCP16), 40 μl of each cell dilution was dispensed into two columns of a TC-treated opaque white 384-well plate, giving a range of 10,000 to 78 cells/well. Columns 1, 2, 23, and 24 were filled with media alone (40 μl/well). Five replicate plates were covered with MicroClime environmental lids (Labcyte) to minimize evaporation and incubated at 37°C, 5% CO2 for 24, 48, 72, 96, and 120 h, respectively. A sixth plate was prepared for determination of cell viability at the time of cell seeding. To determine cell viability, plates were allowed to cool to room temperature for 1 h after removal from 37°C incubation, 20 μl/well of CellTiter-Glo was added using a MicroFlo Select microplate reagent dispenser (BioTek, Winooski, VT, USA), and luminescence was measured after an additional 30 min at room temperature using an EnVision microplate reader (PerkinElmer, Waltham, MA, USA).
# The IC50 of dactinomycin was determined using cells passaged once from the CS242 ERMS (screening) cell bank [see CS242 ERMS (Screening)]. Cells were thawed, grown to 70% confluence over 3 days in a T75 flask, detached by trypsin treatment, seeded at 1,250 cells in 30 μl of media/well in 384-well opaque white TC plates, and allowed to attach overnight. […] After 72 h of cell growth in the presence of dactinomycin, 20 μl of CellTiter-Glo was added, and cell viability was determined as described above (see Cell Viability Assay Development). Percent viability was determined from luminescence values using high controls (no dactinomycin) and low controls (media alone; no cells), and IC50 values were calculated using four-parameter dose–response curve fitting analysis in GraphPad Prism.
# The 2,000-compound Microsource Spectrum library was screened using a fresh batch of CS242 ERMS (screening) cells for each HTS run, prepared as described above (see Cell Viability Assay Development). […] Media alone was added to low control (background) wells in columns 2 and 24. Plates were covered using MicroClime environmental lids (Labcyte), and cells were allowed to attach overnight (≤12 h) at 37°C in an atmosphere of 5% CO2.
# Compounds were delivered to columns 3–22 of assay plates containing attached cells via an intermediate dilution. […] Likewise, DMSO was added to columns 1, 2, 23, and 24 for high and low controls, matching the 0.06% DMSO in the test wells.
# PDE3 = conditions: PDE 3, read-out: Reported PDE inhibition IC50, cited from earlier work
# [2] = tested on: glucocorticoid receptor (GR) activation; parameters: method as in earlier work; conditions: 18 h treatment; ref [30]; cited from earlier work
# [3] = Homo sapiens, read-out: CS242 ERMS viability IC50, Table 3 PDE inhibitor panel
# [4] = read-out: CS242 ERMS viability IC50, Table 3 PDE inhibitor panel
compound,measurement,setting,value
COc1ccc([C@H](Cc2ccncc2)c2ccccc2)cc1OC1CCCC1 [CDP 840],IC50,PDE4; ref [15],0.012 µM
same,IC50,[1]; [3],27.8 µM
COc1ccc(C(=O)Nc2c(Cl)cncc2Cl)cc1OC1CCCC1 [Piclamilast],IC50,PDE4; ref [17],0.001 µM
same,IC50,[1]; [3],55.8 µM
O=c1c2cccnc2n(-c2cccc([N+](=O)[O-])c2)c(=O)n1Cc1ccncc1 [RS 25344],IC50,PDE4; ref [25],0.00028 µM
same,IC50,[1]; [4],> 93.8 µM
CN(C(=O)CCCOc1ccc2[nH]c(=O)ccc2c1)C1CCCCC1 [Cilostamide],IC50,"PDE3; ref [19], [20]",0.027 µM
same,"activity in GR activation screen, in words",[2],inactive
same,IC50,[1]; [3],> 18.8 µM
O=C1CCc2cc(OCCCCc3nnnn3C3CCCCC3)ccc2N1 [Cilostazol],IC50,PDE3; ref [24],0.2 µM
same,IC50,[1]; [3],> 93.8 µM
Cc1[nH]c(=O)c(C#N)cc1-c1ccncc1 [Milrinone],IC50,PDE3; ref [21],0.056 µM
same,IC50,[1]; [3],> 18.8 µM
(R)-(−)-rolipram,IC50,PDE4; ref [22],0.22 µM
same,IC50,[1]; [4],> 18.8 µM
CCCn1c(=O)c(C)cn2nc(N)nc12 [ICI 63197],IC50,PDE4; ref [26],0.035 µM
same,IC50,[1]; [4],> 93.8 µM
CCCCOc1cc(CC2CNC(=O)N2)ccc1OC (stereo not shown) [Ro 20-1724],IC50,PDE4; ref [23],2 µM
same,IC50,[1]; [4],> 18.8 µM
"CCc1ccc2c(-c3cccc(Cl)c3)nc(=O)n(CC)c2n1 [YM 976, 4-(3-chlorophenyl)-1,7-diethylpyrido[2,3-d]pyrimidin-2(1H)-one]",IC50,PDE4; ref [18],0.0022 µM
same,IC50,[1]; [3],60.7 µM
CN/C(=N\c1ccc(C2=NNC(=O)CC2C)cc1)NC#N (stereo not shown) [Siguazodan],IC50,PDE3; ref [21],0.117 µM
same,IC50,[1]; [3],> 93.8 µM
COc1cc2c(cc1OC)-c1c/c(=N\c3c(C)cc(C)cc3C)n(C)c(=O)n1CC2 [Trequinsin],IC50,PDE3; ref [16],0.00025 µM
same,IC50,[1]; [3],36.5 µM
